Here are results for 36 compounds from ChEMBL document CHEMBL1201862, “PubChem BioAssay data set” (2004).

Among the targets are Cytochrome P450 2C9 (Homo sapiens, UniProt P11712); Cytochrome P450 2D6 (Homo sapiens, UniProt P10635); Cytochrome P450 3A4 (Homo sapiens, UniProt P08684).
In assay [1] the target is T1, Fatty acid synthase (Homo sapiens, UniProt P49327). Briefly: FAS thioesterase domain inhibitors, dose response, biochemical, kinetic fluorescence intensity (AID 624326).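 Also: rate of fluorescence rise from hydrolysis of a fluorogenic O-methyl fluorescein ester substrate.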 The class given is functional.
Assay [2] concerns the target T1, Fatty acid synthase. Put plainly: FAS thioesterase domain inhibitors, dose response, biochemical, endpoint fluorescence intensity, uHTS hits (AID 624327).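 Also: fluorescence from hydrolysis of an O-methyl fluorescein acyl ester substrate by the enzyme.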 The class given is functional.
A further assay concerns the target Cytochrome P450 2C19 (Homo sapiens, UniProt P33261). Briefly: Cytochrome panel assay with activity outcomes. Panel member name: p450-cyp2c19 Compounds with AC50 equal or less than 10 uM are considered active. It counts as functional. The conditions noted are these: read-out: AC50.
The target of the next assay is Large T antigen (Simian virus 40, UniProt P03070). It counts as functional, Betapolyomavirus macacae.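 Also: Confirmatory-stage PubChem screen for compounds that inhibit SV40 T antigen.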
Assay [3] has as its target T2, Corticotropin-releasing factor receptor 2/Corticotropin-releasing factor-binding protein (Homo sapiens, UniProt P24387+Q13324).
T2 sequence (Q13324 whole entry): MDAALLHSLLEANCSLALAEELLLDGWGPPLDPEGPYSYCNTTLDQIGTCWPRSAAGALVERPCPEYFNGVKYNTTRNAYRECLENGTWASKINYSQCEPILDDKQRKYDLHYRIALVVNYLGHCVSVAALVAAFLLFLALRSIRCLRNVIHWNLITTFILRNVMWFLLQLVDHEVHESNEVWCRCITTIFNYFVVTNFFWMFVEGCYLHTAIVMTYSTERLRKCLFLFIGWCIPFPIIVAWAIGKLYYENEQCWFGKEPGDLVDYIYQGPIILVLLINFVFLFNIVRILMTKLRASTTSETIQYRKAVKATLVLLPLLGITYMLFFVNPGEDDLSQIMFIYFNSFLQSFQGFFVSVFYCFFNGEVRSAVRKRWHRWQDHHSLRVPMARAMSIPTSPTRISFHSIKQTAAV
T2 sequence (P24387 whole entry): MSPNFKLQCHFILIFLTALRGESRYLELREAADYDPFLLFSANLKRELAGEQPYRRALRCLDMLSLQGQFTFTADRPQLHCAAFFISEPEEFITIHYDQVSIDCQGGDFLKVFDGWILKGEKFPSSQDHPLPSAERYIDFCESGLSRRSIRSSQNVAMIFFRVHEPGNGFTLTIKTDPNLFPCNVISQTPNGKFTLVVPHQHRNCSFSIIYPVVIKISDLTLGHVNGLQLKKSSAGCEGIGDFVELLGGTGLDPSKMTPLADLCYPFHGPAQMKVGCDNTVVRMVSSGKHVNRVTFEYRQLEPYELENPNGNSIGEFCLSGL
Briefly: activators of CRF receptor 2 with binding protein – uHTS hits, confirmation (AID 602473). The class given is functional. The conditions noted are these: read-out: EC50_Mean.

Assay [4] has as its target T3, RNA-binding protein pos-1 (Caenorhabditis elegans, UniProt G5EF15).
T3 sequence (G5EF15 whole entry): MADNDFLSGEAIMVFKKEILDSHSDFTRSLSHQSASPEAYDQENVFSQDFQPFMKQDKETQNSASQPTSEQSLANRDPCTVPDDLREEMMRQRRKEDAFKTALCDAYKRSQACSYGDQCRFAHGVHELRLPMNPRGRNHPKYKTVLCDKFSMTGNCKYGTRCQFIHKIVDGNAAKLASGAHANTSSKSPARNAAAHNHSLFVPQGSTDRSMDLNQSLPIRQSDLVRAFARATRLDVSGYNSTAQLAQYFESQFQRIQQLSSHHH
Briefly: inhibitors of POS-1/mex-3 RNA binding, dose response, biochemical, fluorescence polarization (AID 1964).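 Also: purified POS-1 fused to maltose binding protein made in E. coli; potency of compounds blocking POS-1 binding to fluorescent RNA.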

The target in assay [5] is T4, Zinc finger protein mex-5 (Caenorhabditis elegans, UniProt Q9XUB2).
T4 sequence (Q9XUB2 whole entry): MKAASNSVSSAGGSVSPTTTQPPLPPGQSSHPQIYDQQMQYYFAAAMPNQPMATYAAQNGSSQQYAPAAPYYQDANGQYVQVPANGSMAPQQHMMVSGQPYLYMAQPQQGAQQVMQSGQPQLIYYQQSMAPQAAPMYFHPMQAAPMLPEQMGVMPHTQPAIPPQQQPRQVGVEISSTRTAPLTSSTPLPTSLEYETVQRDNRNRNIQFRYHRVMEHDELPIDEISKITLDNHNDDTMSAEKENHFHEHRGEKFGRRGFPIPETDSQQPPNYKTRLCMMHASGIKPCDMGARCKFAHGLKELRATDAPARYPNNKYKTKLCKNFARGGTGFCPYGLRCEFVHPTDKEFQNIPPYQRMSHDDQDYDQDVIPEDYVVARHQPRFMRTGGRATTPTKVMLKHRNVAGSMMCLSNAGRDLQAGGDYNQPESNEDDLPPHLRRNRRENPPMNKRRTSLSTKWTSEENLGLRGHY
Put plainly: MEX-5/TCR-2 RNA interaction inhibitors, dose response, biochemical, C. elegans, fluorescence polarization (AID 1960). In general terms: In fluorescence polarisation assays a small probe gives low polarisation when free and higher when bound to something large.

The nature of assay [6]: Shn3 3'UTR reporter inhibitors, dose response, cell-based, Clone20 osteoblasts, firefly luciferase, cherry-picked (AID 624132).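 Also: firefly luciferase luminescence from reporter carrying the Shn3 3'UTR in osteoblasts.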 The class given is functional.
The nature of assay [7]: control 3'UTR Renilla luciferase suppression, dose response, counter-screen for Shn3 inhibitor project, cell-based, Clone20-Shn3RL, cherry-picked (AID 624133). The class given is functional. (In general: Counterscreens check selectivity or assay interference.)
The target in assay [8] is T5, Rac GTPase-activating protein 1 (Homo sapiens, UniProt Q9H0H5).
T5 sequence (Q9H0H5 whole entry): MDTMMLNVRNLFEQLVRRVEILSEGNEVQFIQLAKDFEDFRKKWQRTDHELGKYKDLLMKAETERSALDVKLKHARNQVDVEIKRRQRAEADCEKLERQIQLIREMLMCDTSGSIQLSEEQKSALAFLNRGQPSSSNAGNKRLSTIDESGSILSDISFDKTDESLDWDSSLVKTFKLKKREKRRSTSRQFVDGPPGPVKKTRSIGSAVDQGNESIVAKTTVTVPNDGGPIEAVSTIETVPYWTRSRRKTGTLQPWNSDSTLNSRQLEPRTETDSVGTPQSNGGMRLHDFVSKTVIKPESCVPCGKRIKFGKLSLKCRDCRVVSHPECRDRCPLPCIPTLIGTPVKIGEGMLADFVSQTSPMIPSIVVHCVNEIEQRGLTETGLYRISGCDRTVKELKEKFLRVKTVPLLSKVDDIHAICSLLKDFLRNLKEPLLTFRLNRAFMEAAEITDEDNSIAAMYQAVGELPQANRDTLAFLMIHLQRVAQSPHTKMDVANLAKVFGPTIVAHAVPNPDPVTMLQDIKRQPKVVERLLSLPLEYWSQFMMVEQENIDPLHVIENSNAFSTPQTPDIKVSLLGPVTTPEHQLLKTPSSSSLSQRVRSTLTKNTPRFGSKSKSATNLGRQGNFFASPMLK
Briefly: MgcRacGAP GTPase-activating activity inhibitors, confirmation, biochemical, ADP Hunter fluorescence, primary and confirmatory (AID 624330). The class given is functional.

The source made the active and inactive calls.

Sequence of Cytochrome P450 2C19 (P33261 whole entry): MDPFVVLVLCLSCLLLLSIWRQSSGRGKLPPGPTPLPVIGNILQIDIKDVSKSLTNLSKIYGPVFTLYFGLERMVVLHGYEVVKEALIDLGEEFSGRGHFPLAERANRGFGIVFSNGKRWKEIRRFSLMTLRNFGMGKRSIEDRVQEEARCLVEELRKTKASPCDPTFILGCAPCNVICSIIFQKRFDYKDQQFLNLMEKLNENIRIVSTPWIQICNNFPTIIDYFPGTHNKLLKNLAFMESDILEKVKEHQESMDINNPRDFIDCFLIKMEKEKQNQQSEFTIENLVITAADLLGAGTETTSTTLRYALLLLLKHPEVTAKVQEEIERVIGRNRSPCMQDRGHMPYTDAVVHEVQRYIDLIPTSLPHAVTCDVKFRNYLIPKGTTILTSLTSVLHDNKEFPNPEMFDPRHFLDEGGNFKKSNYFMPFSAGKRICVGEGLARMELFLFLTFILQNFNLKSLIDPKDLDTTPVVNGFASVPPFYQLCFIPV
Sequence of Cytochrome P450 2D6 (P10635 whole entry, the tested form may be a part): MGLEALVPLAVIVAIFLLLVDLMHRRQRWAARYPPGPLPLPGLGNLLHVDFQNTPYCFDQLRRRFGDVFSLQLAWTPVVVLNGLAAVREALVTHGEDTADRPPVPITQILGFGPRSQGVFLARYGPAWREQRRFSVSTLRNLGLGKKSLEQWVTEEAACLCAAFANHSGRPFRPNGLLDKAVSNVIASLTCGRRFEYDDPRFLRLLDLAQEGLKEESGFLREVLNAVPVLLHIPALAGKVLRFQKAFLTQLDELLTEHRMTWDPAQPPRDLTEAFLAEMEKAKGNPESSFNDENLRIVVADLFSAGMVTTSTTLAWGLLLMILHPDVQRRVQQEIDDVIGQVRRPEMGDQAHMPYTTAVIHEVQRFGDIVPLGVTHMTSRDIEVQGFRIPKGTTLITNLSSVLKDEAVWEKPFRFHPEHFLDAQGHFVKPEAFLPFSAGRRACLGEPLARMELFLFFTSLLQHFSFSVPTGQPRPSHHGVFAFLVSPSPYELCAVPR
T1 sequence (P49327 whole entry, the tested form may be a part): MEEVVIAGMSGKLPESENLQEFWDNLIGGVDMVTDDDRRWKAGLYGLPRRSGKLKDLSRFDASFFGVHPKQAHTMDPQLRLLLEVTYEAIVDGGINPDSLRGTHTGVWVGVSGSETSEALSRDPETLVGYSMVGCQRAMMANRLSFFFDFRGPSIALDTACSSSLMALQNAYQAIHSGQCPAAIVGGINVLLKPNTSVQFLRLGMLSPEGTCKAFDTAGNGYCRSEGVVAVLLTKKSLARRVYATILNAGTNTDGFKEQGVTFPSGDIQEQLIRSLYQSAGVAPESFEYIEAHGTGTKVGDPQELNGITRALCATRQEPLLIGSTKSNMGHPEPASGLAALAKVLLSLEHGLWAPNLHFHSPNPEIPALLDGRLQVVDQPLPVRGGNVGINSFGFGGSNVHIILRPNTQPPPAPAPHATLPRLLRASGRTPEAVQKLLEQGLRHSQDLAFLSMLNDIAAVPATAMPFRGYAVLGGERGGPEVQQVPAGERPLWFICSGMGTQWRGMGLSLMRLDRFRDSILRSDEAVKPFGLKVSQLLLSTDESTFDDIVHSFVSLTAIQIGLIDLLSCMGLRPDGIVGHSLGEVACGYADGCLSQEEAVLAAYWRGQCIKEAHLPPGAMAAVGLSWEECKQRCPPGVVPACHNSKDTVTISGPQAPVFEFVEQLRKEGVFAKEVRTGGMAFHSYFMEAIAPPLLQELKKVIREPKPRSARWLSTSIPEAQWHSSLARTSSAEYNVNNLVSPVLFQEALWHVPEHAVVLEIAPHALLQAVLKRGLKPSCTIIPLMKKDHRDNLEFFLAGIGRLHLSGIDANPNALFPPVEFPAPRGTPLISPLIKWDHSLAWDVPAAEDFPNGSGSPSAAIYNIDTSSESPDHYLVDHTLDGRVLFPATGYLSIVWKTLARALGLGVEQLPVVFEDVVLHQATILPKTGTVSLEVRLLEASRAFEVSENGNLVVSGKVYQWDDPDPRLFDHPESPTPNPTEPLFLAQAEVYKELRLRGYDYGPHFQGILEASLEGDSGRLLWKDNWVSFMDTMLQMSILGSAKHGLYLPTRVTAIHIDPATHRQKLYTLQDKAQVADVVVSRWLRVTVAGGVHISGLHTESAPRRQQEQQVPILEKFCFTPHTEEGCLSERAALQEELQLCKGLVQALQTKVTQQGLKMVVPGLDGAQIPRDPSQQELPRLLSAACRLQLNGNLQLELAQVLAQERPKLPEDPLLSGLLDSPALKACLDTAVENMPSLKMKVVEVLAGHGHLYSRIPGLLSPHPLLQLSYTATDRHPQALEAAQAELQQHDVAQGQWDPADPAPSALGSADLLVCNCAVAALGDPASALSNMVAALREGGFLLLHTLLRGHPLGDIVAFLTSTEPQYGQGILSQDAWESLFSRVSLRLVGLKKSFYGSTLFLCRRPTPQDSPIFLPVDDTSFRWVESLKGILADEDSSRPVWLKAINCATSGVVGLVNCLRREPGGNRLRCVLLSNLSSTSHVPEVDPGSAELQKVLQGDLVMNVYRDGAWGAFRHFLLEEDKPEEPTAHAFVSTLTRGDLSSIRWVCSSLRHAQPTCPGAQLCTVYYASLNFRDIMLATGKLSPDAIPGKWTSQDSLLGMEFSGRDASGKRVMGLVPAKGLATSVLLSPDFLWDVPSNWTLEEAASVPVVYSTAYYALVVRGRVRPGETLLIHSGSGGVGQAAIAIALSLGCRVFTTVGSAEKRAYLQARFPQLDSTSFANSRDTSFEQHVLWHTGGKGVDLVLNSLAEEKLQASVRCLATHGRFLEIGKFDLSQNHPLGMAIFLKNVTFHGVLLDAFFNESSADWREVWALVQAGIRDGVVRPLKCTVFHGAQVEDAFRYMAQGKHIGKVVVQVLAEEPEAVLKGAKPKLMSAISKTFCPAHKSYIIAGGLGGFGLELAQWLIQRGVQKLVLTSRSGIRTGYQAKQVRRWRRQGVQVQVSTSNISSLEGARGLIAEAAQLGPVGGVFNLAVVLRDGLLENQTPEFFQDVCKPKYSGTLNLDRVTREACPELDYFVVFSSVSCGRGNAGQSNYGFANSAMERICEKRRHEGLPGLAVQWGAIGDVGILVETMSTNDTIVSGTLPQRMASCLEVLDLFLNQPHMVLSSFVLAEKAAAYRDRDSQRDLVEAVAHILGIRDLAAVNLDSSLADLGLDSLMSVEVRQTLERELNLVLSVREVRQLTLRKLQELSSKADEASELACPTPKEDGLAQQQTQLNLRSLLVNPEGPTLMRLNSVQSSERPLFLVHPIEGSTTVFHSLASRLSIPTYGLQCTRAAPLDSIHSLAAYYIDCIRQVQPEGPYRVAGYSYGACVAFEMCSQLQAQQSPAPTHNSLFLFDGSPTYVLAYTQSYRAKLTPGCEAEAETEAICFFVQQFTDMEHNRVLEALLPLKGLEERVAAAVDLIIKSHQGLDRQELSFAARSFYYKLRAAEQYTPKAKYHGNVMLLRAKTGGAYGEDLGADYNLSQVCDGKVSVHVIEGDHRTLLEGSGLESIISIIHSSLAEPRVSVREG
Sequence of Large T antigen (P03070 whole entry): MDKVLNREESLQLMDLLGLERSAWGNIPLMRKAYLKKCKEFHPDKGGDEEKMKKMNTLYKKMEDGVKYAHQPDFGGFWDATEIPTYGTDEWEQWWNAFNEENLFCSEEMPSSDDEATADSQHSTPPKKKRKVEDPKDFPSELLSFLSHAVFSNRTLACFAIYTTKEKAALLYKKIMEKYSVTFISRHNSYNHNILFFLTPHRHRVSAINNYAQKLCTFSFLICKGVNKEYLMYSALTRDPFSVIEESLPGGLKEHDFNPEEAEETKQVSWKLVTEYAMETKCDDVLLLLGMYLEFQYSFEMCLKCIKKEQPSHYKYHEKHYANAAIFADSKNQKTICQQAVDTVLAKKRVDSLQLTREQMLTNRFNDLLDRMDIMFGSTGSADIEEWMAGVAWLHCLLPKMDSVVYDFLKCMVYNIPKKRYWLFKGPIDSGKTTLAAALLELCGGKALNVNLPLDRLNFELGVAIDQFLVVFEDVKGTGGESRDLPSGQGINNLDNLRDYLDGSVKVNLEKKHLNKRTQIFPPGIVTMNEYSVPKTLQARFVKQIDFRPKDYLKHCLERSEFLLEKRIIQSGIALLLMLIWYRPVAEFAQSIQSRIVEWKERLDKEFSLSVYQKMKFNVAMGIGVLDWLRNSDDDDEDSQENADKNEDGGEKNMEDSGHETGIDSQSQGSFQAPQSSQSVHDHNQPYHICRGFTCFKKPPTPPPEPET
Sequence of Cytochrome P450 3A4 (P08684 whole entry, the tested form may be a part): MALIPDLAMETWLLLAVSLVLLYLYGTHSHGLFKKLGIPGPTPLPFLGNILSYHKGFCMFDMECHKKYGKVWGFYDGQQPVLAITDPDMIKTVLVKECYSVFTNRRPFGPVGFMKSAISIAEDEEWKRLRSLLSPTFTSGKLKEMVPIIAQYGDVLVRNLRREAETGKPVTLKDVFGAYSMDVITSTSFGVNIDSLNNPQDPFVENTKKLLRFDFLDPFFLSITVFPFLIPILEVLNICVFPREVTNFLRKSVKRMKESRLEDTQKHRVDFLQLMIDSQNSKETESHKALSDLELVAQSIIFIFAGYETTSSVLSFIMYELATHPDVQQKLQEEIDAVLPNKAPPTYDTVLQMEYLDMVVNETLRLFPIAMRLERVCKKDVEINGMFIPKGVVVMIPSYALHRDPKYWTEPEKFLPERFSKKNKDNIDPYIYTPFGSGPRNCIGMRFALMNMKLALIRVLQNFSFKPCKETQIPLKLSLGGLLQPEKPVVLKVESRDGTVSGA

For the compound `C=CCN(CC=C)C(=O)C(=O)c1cc(C)n(-c2ccc([N+](=O)[O-])cc2)c1C`, the figures for the AC50 on Cytochrome P450 2C9 and on Cytochrome P450 2D6 were 15.8 µM (inconclusive) and 3.98 µM (inconclusive), respectively.
As for `CCOC(=O)CC(=O)CSc1n[nH]c2c3ccccc3nc-2n1`, the AC50 – broadly, the midpoint of the concentration-response curve, whichever way the signal moves – is 2.51 µM (inconclusive) at Cytochrome P450 3A4 and 3.55 µM (inconclusive) on Cytochrome P450 2D6.
For the compound `CCN1C(=O)[C@H]2[C@@H](c3ccc(C)cc3)N3C(=O)N(c4cccc(Cl)c4)C(=O)[C@@]3(Cc3ccc(Cl)cc3)[C@H]2C1=O`, the IC50 – broadly, the concentration needed to halve the response being measured – at Fatty acid synthase [1] was 16.1 µM (active); on Fatty acid synthase [2] it was 12 µM (active).
Consider `CNc1ncnc2ccc(-c3cccc(NS(C)(=O)=O)c3)cc12`, for which the results for the AC50 at Cytochrome P450 2D6 and on Cytochrome P450 2C19 were 39.8 µM (inconclusive) and 20 µM (inconclusive), respectively.
The corresponding values for `CCCCC(=O)NCCc1c(Cc2ccccc2)[nH]c2ccccc12` are 39.8 µM (inconclusive) and 20 µM (inconclusive).
As to `O=C1CC(=O)N(Cc2ccco2)C(=S)N1`, the IC50 on Large T antigen is 55.5 µM (active).
For the compound `Cc1c(N2CCCC2)cc2c(c1NC(=O)c1ccccc1Cl)C(C)(C)CC2(C)C`, the AC50 was 0.631 µM (inconclusive) on Cytochrome P450 3A4 and 3.16 µM (inconclusive) at Cytochrome P450 2D6.
As to `CC1CCCN(c2ccc(N)cc2C(N)=O)C1` (stereo unspecified), the IC50 on Large T antigen was 44.6 µM (active).
On the same count and under the same terms, the value for `COc1cc(/C=C2/C(C)=C(C#N)c3nc(N)c(C#N)c(C)c32)ccc1OCC(=O)O` was 89.5 µM (active).
`C#CCOC(=O)NC(/C=C/CCCC)c1ccccc1` (stereo unspecified): the AC50 at Cytochrome P450 2D6 is 20 µM (inconclusive); at Cytochrome P450 2C19 it was 25.1 µM (inconclusive).
With `COc1cccc(C(=O)NC2CC3CCCC(C2)N3CC(=O)Nc2ccc(N(C)C)cc2)c1` (stereo unspecified), at Large T antigen, the IC50 is 6.24 µM (active).
In the case of `O=C(O)C(=O)/C(=C\c1cccc2ccccc12)c1ccc2ccccc2n1`, the EC50 was 7.6 µM (active) in assay [3], 164 µM (active) in assay [4] and 34.2 µM (active) in assay [5].
On to `CCn1c(SCC(=O)Nc2ncc(C(F)(F)F)cc2Cl)nnc1-c1cccc(C)c1`, for which the IC50 at Fatty acid synthase [1] is 3.94 µM (active); at Fatty acid synthase [2] it was 3.66 µM (active).
Consider `CCCSc1nnc2nc3c(nn12)c1ccccc1n3C`, for which the figures for the EC50 in assay [4] and in [5] were > 300 µM (not active) and 76.6 µM (active), respectively.
For the compound `COc1cc(OC)c(C2CC(=O)N3CN(c4ccccc4C)CSC3=C2C#N)cc1OC` (stereo unspecified), the IC50 on Large T antigen was 54.8 µM (active).
The same measure, in the same setting: the same measure for `O=C(Nc1ccc(O)cc1)c1ccc2c(c1)C(=O)N(N1C(=O)c3ccccc3C1=O)C2=O`: 21.4 µM (active); for `COc1ccc(NC2CCCN(C(=O)CCCn3cncn3)C2)cc1` (stereo unspecified): 52.6 µM (active).
As for `O=C(NCc1ccc2c(c1)OCO2)c1cc([N+](=O)[O-])ccc1N1CCCCC1`, the IC50 is 5.03 µM (active) on Fatty acid synthase [1] and 10.5 µM (active) at Fatty acid synthase [2].
For `O=C(CSCc1c(Cl)cccc1Cl)NCC1CCCO1` (stereo unspecified), the EC50 in assay [4] and in assay [5] was > 300 µM (not active) in each case.
For the compound `CCC(C)N1C(=O)/C(=C\NNc2nc3c(c(=O)n(C)c(=O)n3C)n2C)C(=O)NC1=S` (stereo unspecified), the figures for the EC50 in assay [4] and in [5] were > 300 µM (not active) and 38.6 µM (active), respectively.
Turning to `N#CC(C#N)=Cc1ccc(-c2ccccc2)o1`, the EC50 is 6.78 µM (inconclusive) in [4] and 22.5 µM (inconclusive) in assay [5].
With `Cc1cc(/C=C2\C(=O)NC(=O)N(Cc3ccco3)C2=O)c(C)n1-c1ccc(C(=O)O)cc1`, the EC50 in [5] is > 300 µM (inconclusive).
Take `CN1C(=O)/C(=C\c2ccc(N3CCCCC3)o2)C(=O)NC1=S`: the EC50 in assay [4] and in assay [5] was > 300 µM (not active) throughout.
Consider `FC(F)(F)c1nc(N2CCCC2)ncc1-c1nnnn1-c1ccccc1`, for which the AC50 at Cytochrome P450 2D6 is 12.6 µM (inconclusive).
As for `CCOc1ccc(NC(=O)CN(c2ccc([N+](=O)[O-])cc2)S(=O)(=O)c2ccccc2)cc1`, the IC50 is 7.65 µM (active) at Fatty acid synthase [1] and 10.5 µM (active) on Fatty acid synthase [2].
As to `CC(C)(C)NS(=O)(=O)c1ccc(NC(=O)NC2CCCCC2)cc1`, the figures for the AC50 at Cytochrome P450 2D6 and on Cytochrome P450 2C19 were 17.8 µM (inconclusive) and 25.1 µM (inconclusive), respectively.
For `COc1ccc([N+](=O)[O-])cc1NC(=O)c1ccc(N(Cc2ccccc2C)S(C)(=O)=O)cc1`, the results for the IC50 at Fatty acid synthase [1] and at Fatty acid synthase [2] were 6.91 µM (active) and 9.88 µM (active), respectively.
Take `Cc1cc(C)cc(NS(=O)(=O)c2ccc3ncc(C(=O)N4CCc5ccccc54)c(O)c3c2)c1`: in assay [3], the EC50 was > 53 µM (inactive).
Consider `Cc1cc2c3c(c1C)C1(C(=O)N3C(C)(C)CC2C)C(C#N)=C(N)OC2=C1C(=O)CC(C)(C)C2` (stereo unspecified), for which the EC50 in [4] and in assay [5] was > 300 µM (not active) each time.
Consider `CCOC(=O)C1CCN(C(=O)c2ccc(OCC(=O)Nc3cccc(C(F)(F)F)c3)c(OC)c2)CC1`, for which the values for the AC50 in assay [6] and in [7] were 1.75 µM (active) and 4.69 µM (active), respectively.
As for `O=C(Cc1ccc(S(=O)(=O)N2CCOCC2)s1)N1CCN(S(=O)(=O)c2ccccc2[N+](=O)[O-])CC1`, the values for the IC50 on Fatty acid synthase [1] and at Fatty acid synthase [2] were 3.36 µM (active) and 0.241 µM (active), respectively.
Consider `CCN(CC)C(=O)C1=C(C)N(Cc2ccc(F)cc2)C(=O)C(CC(=O)NC(c2ccccc2)c2ccccc2)C1` (stereo unspecified), for which the IC50 at Fatty acid synthase [1] was 7.98 µM (active); at Fatty acid synthase [2], 9.6 µM (active).
The corresponding values for `Fc1c(F)c(F)c(N/N=C/c2c[nH]c3ccccc23)c(F)c1F` are 12.4 µM (active) and 11.5 µM (active).
Take `Sc1nnc(COc2ccccc2)n1/N=C/C=C/c1ccco1`: on Large T antigen, the IC50 is > 100 µM (active).
Consider `CCOc1cc(/C=N/Nc2ncnc(Cl)c2N)ccc1O`, for which the IC50 on Large T antigen is 6.12 µM (active); in assay [8] it was 25.2 µM (active).
In the case of `COc1cc(C=C2C(=O)NC(=O)NC2=O)ccc1O`, the IC50 at Large T antigen is 28 µM (active).
